From patent publication US20200370087A1, “METHOD FOR DETERMINING MICROBIAL SUSCEPTIBILITY TO ANTIBIOTIC AGENTS” (Ascilion AB, priority 2017, published 2020)

Experiments:
[1] = test system: Escherichia coli (ATCC 25922); assay: Glucose consumption susceptibility test, blood culture diluted in MHB with glucose (Example 1); format: cell-based; design: glucose concentration, t = 0 / glucose concentration, t = 60 / glucose concentration, t = 120 / glucose concentration, t = 180 / dC/dT (rate of change in glucose concentration) / glucose concentration, t = 240: unit not given here; conditions: for F = the rate of change in glucose concentration in relation to the reference / dC/dT (rate of change in glucose concentration) / glucose concentration, t = 0 / glucose concentration, t = 60 / glucose concentration, t = 120 / glucose concentration, t = 180 / glucose concentration, t = 240: E. coli; for glucose concentration, t = 0: 0 minutes; for glucose concentration, t = 60: 60 minutes; for glucose concentration, t = 120: 120 minutes; for glucose concentration, t = 180: 180 minutes; for glucose concentration, t = 240: 240 minutes
Description: Strains of Escherichia coli (ATCC 25922), Enterococcus faecalis (ATCC 29212) and Staphylococcus aureus (ATCC 29213) were inoculated in blood culture bottles (SVA, Uppsala, Sweden) and cultivated according to the manufacturer's instructions until positive.
Medium from each blood culture bottle was diluted 1:100 with cation adjusted Mueller-Hinton broth (SVA, Uppsala, Sweden) supplemented with glucose to a concentration of 1.0 mg/mL.
Glucose concentrations were measured at 0, 60, 120, 180, and 240 minutes using a WaveSense Jazz glucometer (AgaMatrix, Inc., Salem, N.H., USA) with accompanying test strips.
Susceptibility scores corresponding to MIC values were calculated as described above. A 80% threshold was applied, i.e. the lowest concentration of antibiotic that entailed a rate of change in glucose concentration that was equal to or less than 80% of the reference was selected as the Minimal Inhibitory Concentration. The rate of change was calculated between the measurements at 60 and 180 minutes.

E. coli 17 = assay: Qualitative glucose consumption test, bacteria from plated cultures (Example 2, Table 6); format: cell-based; conditions: E. coli 17 from plated culture, antibiotic 256 μg/mL
Description: (§1) If the susceptibility score is a qualitative susceptibility score classifying the microorganism as “susceptible”, or “non-susceptible” to an antibiotic agent the answer could be given in as little as 1 hour. Bacteria from plated cultures were suspended in cation adjusted Mueller-Hinton broth (SVA, Uppsala, Sweden) supplemented with glucose. Consequently, the concentration of microorgansims was typically two orders of magnitude higher as compared to Example 1. […] The tested microorganisms was one strain of E. faecium, two strains of E. coli and one S. aureus.

E. coli ATCC 25922 [2] = assay: as above; format: cell-based; conditions: E. coli ATCC 25922 from plated culture, antibiotic 256 μg/mL
Description: as §1

E. faecium [3] = assay: as above; format: cell-based; conditions: E. faecium from plated culture, antibiotic 256 μg/mL
Description: as §1

S. aureus = assay: as above; format: cell-based; conditions: S. aureus from plated culture, antibiotic 256 μg/mL
Description: If the susceptibility score is a qualitative susceptibility score classifying the microorganism as “susceptible”, or “non-susceptible” to an antibiotic agent the answer could be given in as little as 1 hour.
Bacteria from plated cultures were suspended in cation adjusted Mueller-Hinton broth (SVA, Uppsala, Sweden) supplemented with glucose. Consequently, the concentration of microorgansims was typically two orders of magnitude higher as compared to Example 1. […] The tested microorganisms was one strain of E. faecium, two strains of E. coli and one S. aureus.

E. faecium [4] = assay: Qualitative glucose consumption test, directly from positive BC-bottles (Example 2, Table 7); format: cell-based; conditions: E. faecium from positive BC-bottle, antibiotic 256 μg/mL
Description: With slightly lower microbe concentrations e.g. directly from positive BC-bottles (^˜10^9 CFU/ml) the results are shown at least within 2 hours, where E. coli ATCC 25922 is classified as susceptible and E. faecium is non-susceptible.

E. coli ATCC 25922 [5] = assay: as above; format: cell-based; conditions: E. coli ATCC 25922 from positive BC-bottle, antibiotic 256 μg/mL
[6] = test system: Escherichia coli ATCC 25922; conditions: E.coli, cited from earlier work
[7] = test system: Enterococcus faecalis ATCC 29212; conditions: E.faecalis, cited from earlier work
[8] = range obtained by EUCAST from ISO 20776-1: 2006
[9] = reference value, Mueller-Hinton agar, incubation 18±2 h, N/A = not susceptible

Q: For gentamicin, which “F = the rate of change in glucose concentration in relation to the reference” value (shortened to “F = the rate of change”) ([1]; antibiotic 0.25 μg/mL) is on record?
A: 139%

Q: What about the “dC/dT (rate of change in glucose concentration)” value ([1]; antibiotic 0.25 μg/mL) of the same substance?
A: 86

Q: What about the “glucose concentration, t = 0” value ([1]; antibiotic 0.25 μg/mL) of the same substance?
A: 149

Q: What about the “glucose concentration, t = 60” value ([1]; antibiotic 0.25 μg/mL) of the same substance?
A: 152

Q: And the “glucose concentration, t = 120” value ([1]; antibiotic 0.25 μg/mL)?
A: 144

Q: What about the “glucose concentration, t = 180” value ([1]; antibiotic 0.25 μg/mL) of the same substance?
A: 58

Q: What about the “F = the rate of change” value ([1]; antibiotic 0.5 μg/mL) of the same substance?
A: 121%

Q: What about the “dC/dT (rate of change in glucose concentration)” value ([1]; antibiotic 0.5 μg/mL) of the same substance?
A: 75

Q: And the “glucose concentration, t = 0” value ([1]; antibiotic 0.5 μg/mL)?
A: 144

Q: And the “glucose concentration, t = 60” value ([1]; antibiotic 0.5 μg/mL)?
A: 147

Q: What about the “glucose concentration, t = 120” value ([1]; antibiotic 0.5 μg/mL) of the same substance?
A: 147

Q: And the “glucose concentration, t = 180” value ([1]; antibiotic 0.5 μg/mL)?
A: 72

Q: And the “F = the rate of change” value ([1]; antibiotic 1 μg/mL)?
A: 77%

Q: And the “dC/dT (rate of change in glucose concentration)” value ([1]; antibiotic 1 μg/mL)?
A: 48

Q: What about the “glucose concentration, t = 0” value ([1]; antibiotic 1 μg/mL) of the same substance?
A: 144

Q: What about the “glucose concentration, t = 60” value ([1]; antibiotic 1 μg/mL) of the same substance?
A: 155

Q: And the “glucose concentration, t = 120” value ([1]; antibiotic 1 μg/mL)?
A: 148

Q: And the “glucose concentration, t = 180” value ([1]; antibiotic 1 μg/mL)?
A: 111

Q: What about the “glucose concentration, t = 240” value ([1]; antibiotic 1 μg/mL) of the same substance?
A: 53

Q: What about the “F = the rate of change” value ([1]; antibiotic 2 μg/mL) of the same substance?
A: 9%

Q: What about the “dC/dT (rate of change in glucose concentration)” value ([1]; antibiotic 2 μg/mL) of the same substance?
A: 6

Q: And the “glucose concentration, t = 60” value ([1]; antibiotic 2 μg/mL)?
A: 161

Q: And the “glucose concentration, t = 120” value ([1]; antibiotic 2 μg/mL)?
A: 151

Q: What about the “glucose concentration, t = 180” value ([1]; antibiotic 2 μg/mL) of the same substance?
A: 143

Q: What about the “glucose concentration, t = 240” value ([1]; antibiotic 2 μg/mL) of the same substance?
A: 140

Q: What about the “F = the rate of change” value ([1]; antibiotic 4 μg/mL) of the same substance?
A: 7%

Q: What about the “dC/dT (rate of change in glucose concentration)” value ([1]; antibiotic 4 μg/mL) of the same substance?
A: 5

Q: What about the “glucose concentration, t = 0” value ([1]; antibiotic 4 μg/mL) of the same substance?
A: 147

Q: And the “glucose concentration, t = 60” value ([1]; antibiotic 4 μg/mL)?
A: 163

Q: What about the “glucose concentration, t = 120” value ([1]; antibiotic 4 μg/mL) of the same substance?
A: 157

Q: What about the “glucose concentration, t = 180” value ([1]; antibiotic 4 μg/mL) of the same substance?
A: 148

Q: And the “glucose concentration, t = 240” value ([1]; antibiotic 4 μg/mL)?
A: 148

Q: What about the “F = the rate of change” value ([1]; antibiotic 8 μg/mL) of the same substance?
A: 7%

Q: What about the “dC/dT (rate of change in glucose concentration)” value ([1]; antibiotic 8 μg/mL) of the same substance?
A: 5

Q: What about the “glucose concentration, t = 0” value ([1]; antibiotic 8 μg/mL) of the same substance?
A: 144

Q: What about the “glucose concentration, t = 60” value ([1]; antibiotic 8 μg/mL) of the same substance?
A: 156

Q: And the “glucose concentration, t = 120” value ([1]; antibiotic 8 μg/mL)?
A: 153

Q: What about the “glucose concentration, t = 180” value ([1]; antibiotic 8 μg/mL) of the same substance?
A: 150

Q: And the “glucose concentration, t = 240” value ([1]; antibiotic 8 μg/mL)?
A: 144

Q: What about the “F = the rate of change” value ([1]; antibiotic 16 μg/mL) of the same substance?
A: 1%

Q: And the “dC/dT (rate of change in glucose concentration)” value ([1]; antibiotic 16 μg/mL)?
A: 1

Q: And the “glucose concentration, t = 0” value ([1]; antibiotic 16 μg/mL)?
A: 143

Q: And the “glucose concentration, t = 60” value ([1]; antibiotic 16 μg/mL)?
A: 155

Q: What about the “glucose concentration, t = 120” value ([1]; antibiotic 16 μg/mL) of the same substance?
A: 152

Q: What about the “glucose concentration, t = 180” value ([1]; antibiotic 16 μg/mL) of the same substance?
A: 149

Q: And the “glucose concentration, t = 240” value ([1]; antibiotic 16 μg/mL)?
A: 153

Q: And the “F = the rate of change” value ([1]; antibiotic 32 μg/mL)?
A: 6%

Q: And the “dC/dT (rate of change in glucose concentration)” value ([1]; antibiotic 32 μg/mL)?
A: 4

Q: What about the “glucose concentration, t = 0” value ([1]; antibiotic 32 μg/mL) of the same substance?
A: 148

Q: And the “glucose concentration, t = 60” value ([1]; antibiotic 32 μg/mL)?
A: 158

Q: And the “glucose concentration, t = 120” value ([1]; antibiotic 32 μg/mL)?
A: 155

Q: What about the “glucose concentration, t = 180” value ([1]; antibiotic 32 μg/mL) of the same substance?
A: 150

Q: What about the “glucose concentration, t = 240” value ([1]; antibiotic 32 μg/mL) of the same substance?
A: 147

Q: And the “MIC, Measured” value ([1]; E.coli, 80% threshold of reference rate of change, 60 to 180 minutes, N/A = not susceptible, no MIC value can be calculated)?
A: 1 µg/mL

Q: What about the qualitative susceptibility score (E. coli 17) of the same substance?
A: susceptible

Q: What about the “glucose concentration, t = 15” value (E. coli 17; t = 15) of the same substance?
A: 131

Q: What about the “glucose concentration, t = 30” value (E. coli 17; t = 30) of the same substance?
A: 126

Q: And the “glucose concentration, t = 45” value (E. coli 17; t = 45)?
A: 123

Q: And the qualitative susceptibility score (E. coli ATCC 25922 [2])?
A: susceptible

Q: And the “glucose concentration, t = 15” value (E. coli ATCC 25922 [2]; t = 15)?
A: 156

Q: And the “glucose concentration, t = 30” value (E. coli ATCC 25922 [2]; t = 30)?
A: 155

Q: And the “glucose concentration, t = 45” value (E. coli ATCC 25922 [2]; t = 45)?
A: 136

Q: And the qualitative susceptibility score (E. faecium [3])?
A: non-susceptible

Q: What about the “glucose concentration, t = 0” value (E. faecium [3]; t = 0) of the same substance?
A: 79

Q: And the “glucose concentration, t = 15” value (E. faecium [3]; t = 15)?
A: 47

Q: What about the qualitative susceptibility score (S. aureus) of the same substance?
A: susceptible

Q: And the “glucose concentration, t = 15” value (S. aureus; t = 15)?
A: 137

Q: What about the “glucose concentration, t = 30” value (S. aureus; t = 30) of the same substance?
A: 139

Q: What about the “glucose concentration, t = 45” value (S. aureus; t = 45) of the same substance?
A: 131

Q: And the “glucose concentration, t = 0” value (E. faecium [4]; t = 0)?
A: 144

Q: And the “glucose concentration, t = 45” value (E. faecium [4]; t = 45)?
A: 105

Q: And the “glucose concentration, t = 60” value (E. faecium [4]; t = 60)?
A: 77

Q: What about the “glucose concentration, t = 75” value (E. faecium [4]; t = 75) of the same substance?
A: 47

Q: What about the qualitative susceptibility score (E. faecium [4]; within 2 hours) of the same substance?
A: non-susceptible

Q: And the “glucose concentration, t = 0” value (E. coli ATCC 25922 [5]; t = 0)?
A: 145

Q: What about the “glucose concentration, t = 45” value (E. coli ATCC 25922 [5]; t = 45) of the same substance?
A: 155

Q: And the “glucose concentration, t = 60” value (E. coli ATCC 25922 [5]; t = 60)?
A: 151

Q: What about the “glucose concentration, t = 90” value (E. coli ATCC 25922 [5]; t = 90) of the same substance?
A: 140

Q: What about the “glucose concentration, t = 105” value (E. coli ATCC 25922 [5]; t = 105) of the same substance?
A: 135

Q: And the qualitative susceptibility score (E. coli ATCC 25922 [5]; within 2 hours)?
A: susceptible

Q: And the “MIC, EUCAST, range in parentheses” value [6, 8]?
A: (0.25-1) ug/mL

Q: And the “MIC, EUCAST” value [6, 9]?
A: 0.5 µg/mL

Q: What about the “MIC, EUCAST, range in parentheses” value [7, 8] of the same substance?
A: (4-16) ug/mL

Q: And the “MIC, EUCAST” value [7, 9]?
A: 8 µg/mL
